According to patent US5270334A, “4-methoxy-5-methyl-pyran-3-ol natural products and derivatives thereof” (E. R. Squibb & Sons, Inc., priority 1992, dated 1993):
In brackets after ≈: the same amount, converted by molar mass. Where two headings read alike, the source gives them in different places.

What was measured:
Assay type in all cases: cell-based
[1] = system: Epidermophyton floccosum; experiment: Activity of lanomycin against filamentous fungi, agar dilution (Table 6); conditions: SC9185; Epidermophyton floccosum SC 9185; 10^3 cfu
Description: (§1) MICs were determined by the agar dilution method using a medium composed of tryptone (5 g), malt extract (3 g), glucose (10 g) and yeast extract (3 g) in 1 L distiled water; 10^4 cfu of the test organism was applied to the agar.
(§2) MICs were determined as in Table 5 except that the inoculum was 10^3 cfu.

[2] = system: Trichophyton mentagrophytes; experiment: as above; conditions: SC2637; Trichophyton mentagrophytes SC 2637; 10^3 cfu
Description: as §1, §2

[3] = system: Trichophyton rubrum; experiment: as above; conditions: SC9199; Trichophyton rubrum SC 9199; 10^3 cfu
Description: as §1, §2

[4] = system: Candida species; experiment: antifungal activity of lanomycin; conditions: in words, Table 4
Description: *Minimal inhibitory concentrations were determined by agar dilution assay

[5] = system: Aspergillus fumigatus; experiment: MIC of scopularin, agar dilution assay (K-10 agar); conditions: SC2100, 18 h; Aspergillus fumigatus SC 2100
Description: (§3) The following methodology was used to determine the miniumum inhibitory concentration (hereinafter referred to as MIC) of scopularin.
(§4) The aerobic test organisms were grown in approximately 15-20ml of Antibiotic Assay Broth (Difco) by inoculating (in tubes) the broth with a loopful of the organism from a BHI (Difco) agar slant. The inoculated tubes were incubated at 37° C. for 18 to 24 hours. These cultures are assumed to contain 10^7 colony forming units (CFU) per ml and the cultures were diluted 1:100 to give a final inoculum level of 10^5 CFU; dilutions were made with Yeast Beef Broth (Difco).
(§5) Scopularin was dissolved in an appropriate diluent at a concentration of 1,000 μg/ml. Two-fold dilutions were made in Yeast Beef Broth (Difco), resulting in a range from 1000 µg/ml to 0.5 μg/ml. 1.5 ml of each dilution was placed into individual petri dishes to which 13.5ml of K-10 agar was added. The composition of K-10 agar is:
(§6) The final drug concentration in the agar ranged from 100 μg/ml to 0.05 μg/ml. Organism growth control plates containing agar only were prepared and inoculated before and after the test plates. The organisms were applied to the agar surface of each plate with a Denly Multipoint Inoculator (which delivers approximately 0.001 ml of each organism) resulting in a final inoculum of 10^4 CFU on the agar surface.
(§7) The plates were incubated at 37° C. for 18 hours and the MICs determined. The MIC is the lowest concentration of compound inhibiting growth of the organism.

[6] = system: Candida albicans; experiment: MIC of scopularin, agar dilution assay (K-10 agar)
Description: as §3, §4, §5, §6, §7

[7] = system: Candida glabrata; experiment: MIC of scopularin, agar dilution assay (K-10 agar); conditions: Nakaseomyces glabratus, SC11, 18 h; Candida glabrata SC 11,267
Description: as §3, §4, §5, §6, §7

[8] = system: Candida guilliermondii; experiment: MIC of scopularin, agar dilution assay (K-10 agar); conditions: Meyerozyma guilliermondii
Description: as §3, §4, §5, §6, §7

[9] = system: Candida krusei; experiment: MIC of scopularin, agar dilution assay (K-10 agar); conditions: Pichia kudriavzevii
Description: as §3, §4, §5, §6, §7

[10] = system: Candida parakrusei; experiment: MIC of scopularin, agar dilution assay (K-10 agar)
Description: as §3, §4, §5, §6, §7

[11] = system: Candida pseudotropicalis; experiment: MIC of scopularin, agar dilution assay (K-10 agar); conditions: Kluyveromyces marxianus, SC11, 18 h; Candida pseudotropicalis SC 11,241
Description: as §3, §4, §5, §6, §7

[12] = system: Candida stellatoidea; experiment: MIC of scopularin, agar dilution assay (K-10 agar); conditions: Candida albicans, SC2211, 18 h; Candida stellatoidea SC 2211
Description: as §3, §4, §5, §6, §7

[13] = system: Candida tropicalis; experiment: MIC of scopularin, agar dilution assay (K-10 agar)
Description: as §3, §4, §5, §6, §7

[14] = system: Epidermophyton floccosum; experiment: MIC of scopularin, agar dilution assay (K-10 agar); conditions: SC9185, 18 h; Epidermophyton floccosum SC 9185
Description: as §3, §4, §5, §6, §7

[15] = system: Microsporum canis; experiment: MIC of scopularin, agar dilution assay (K-10 agar); conditions: SC9237, 18 h; Microsporum canis SC 9237
Description: as §3, §4, §5, §6, §7

[16] = system: Trichophyton mentagrophytes; experiment: MIC of scopularin, agar dilution assay (K-10 agar); conditions: SC2637, 18 h; Trichophyton mentagrophytes SC 2637
Description: as §3, §4, §5, §6, §7

[17] = system: Trichophyton rubrum; experiment: MIC of scopularin, agar dilution assay (K-10 agar); conditions: SC9199, 18 h; Trichophyton rubrum SC 9199
Description: as §3, §4, §5, §6, §7

[18] = target: T1, lanosterol demethylase of Candida albicans (Candida albicans, UniProt P10613); experiment: inhibition of lanosterol demethylase, radiolabeled metabolic assay (14C-acetate, lanosterol accumulation); conditions: Candida albicans SC5314, 14C-acetate, 30°
T1 construct: 14C-acetate sterol labelling, TLC
T1 sequence (P10613 whole entry): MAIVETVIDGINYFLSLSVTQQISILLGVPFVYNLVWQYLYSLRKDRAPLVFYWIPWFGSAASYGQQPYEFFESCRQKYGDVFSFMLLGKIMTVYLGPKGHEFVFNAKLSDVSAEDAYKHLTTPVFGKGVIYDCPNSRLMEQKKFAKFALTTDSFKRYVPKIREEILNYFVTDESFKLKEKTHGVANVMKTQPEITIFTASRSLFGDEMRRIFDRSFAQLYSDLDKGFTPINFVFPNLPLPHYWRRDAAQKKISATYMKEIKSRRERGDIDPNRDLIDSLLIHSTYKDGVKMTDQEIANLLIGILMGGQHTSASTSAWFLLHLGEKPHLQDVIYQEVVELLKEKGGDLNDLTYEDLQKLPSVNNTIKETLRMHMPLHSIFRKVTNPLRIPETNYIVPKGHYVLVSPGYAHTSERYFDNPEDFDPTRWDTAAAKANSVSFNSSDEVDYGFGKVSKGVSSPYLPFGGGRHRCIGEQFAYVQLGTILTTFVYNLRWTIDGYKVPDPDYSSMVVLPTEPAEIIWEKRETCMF
Description: The inhibition of lanosterol demethylase was determined by two methods: the spectrophotometric carbon monoxide binding assay of Omura and Sato (J. Biol. Chem. 239:2370-2378, 1964) and by a radiolabeled metabolic assay.
The ability of scopularin and its alcohol to inhibit the lanosterol demethylase of Candida albicans can also be visualized by a metabolic assay. Candida albicans, SC5314, was grown overnight at 30° with shaking in the same medium as that used above. Cells were harvested by centrifugation and resuspended in water to give an optical density of 0.3 at 660 nm. 750 μl of this cell suspension, 300 μl of a medium containing 0.35 g Difco yeast nitrogen base without amino acids, 1 g glucose and distilled water to 10 ml, 100 μl of test material and distilled water were combined to give a final volume of 1.425 ml. This was incubated for 15 minutes at 30° C. with shaking, then 3 μCi ^14 C-acetate was added and continued to incubate for 1 hour. Cells were harvested by centrifugation and extracted with 2×0.5 ml methanol; centrifuged, decanted supernate and repeated the extraction with […] methanol-benzene (1:1). Centrifuged, decanted; combined supernates, dried and resuspended in 100 μl chloroform-methanol (1:1). The aliquots were spotted onto silica gel 60 (Merck) plates and developed chromatographically in a solvent containing dichloromethane-acetone (60:1). […]

C/C=C/C=C/C=C(\C)[C@H]1OC[C@@H](C)[C@@H](OC)[C@@H]1OC(=O)CN (relative stereo) [Lanomycin]
MIC [1]: 0.4 µg/mL (≈ 1.29 µM)
MIC [2]: 0.4 µg/mL (≈ 1.29 µM)
MIC [3]: 1.6 µg/mL (≈ 5.17 µM)
activity against some Candida species [4]: showed activity

CCC/C=C/C=C/C=C(\C)[C@H]1OC[C@@H](C)[C@@H](OC)[C@@H]1OC(=O)CN (relative stereo) [Scopularin, (2α, 3β, 4α, 5α)-Tetrahydro-4-methoxy-5-methyl-2-(1-methyl-1,3,5-nonatrienyl)-2H-pyran-3-ol, aminoacetate ester]
MIC [5]: 50 µg/mL
MIC ([6]; SC10, 18 h, Candida albicans SC 10,102): 100 µg/mL
MIC ([6]; SC10, 18 h, Candida albicans SC 10,580): 50 µg/mL
MIC ([6]; SC10, 18 h, Candida albicans SC 10,584): 25 µg/mL
MIC ([6]; SC10, 18 h, Candida albicans SC 10,585): 50 µg/mL
MIC ([6]; SC11, 18 h, Candida albicans SC 11,422): 50 µg/mL
MIC ([6]; SC12, 18 h, Candida albicans SC 12,734 (Bacilysin^R)): 100 µg/mL
MIC ([6]; SC14, 18 h, Candida albicans SC 14,021 (Aculeacin^R)): 50 µg/mL
MIC ([6]; SC5314, 18 h, Candida albicans SC 5314): 50 µg/mL
MIC ([6]; SC9177, 18 h, Candida albicans SC 9177): 50 µg/mL
MIC ([6]; SC9721, 18 h, Candida albicans SC 9721): 50 µg/mL
MIC [7]: 25 µg/mL
MIC ([8]; SC2210, 18 h, Candida guilliermondii SC 2210): 12.5 µg/mL
MIC ([8]; SC2996, 18 h, Candida guilliermondii SC 2996): 0.4 µg/mL
MIC ([9]; SC2967, 18 h): 0.4 µg/mL
MIC ([9]; SC2968, 18 h, Candida krusei SC 2968, read-out: MIC): 1.6 µg/mL
MIC ([9]; SC2969, 18 h, Candida krusei SC 2969, read-out: MIC): 1.6 µg/mL
MIC ([10]; SC2621, 18 h, Candida parakrusei SC 2621): 0.8 µg/mL
MIC ([10]; SC2966, 18 h, Candida parakrusei SC 2966): 1.6 µg/mL
MIC [11]: 25 µg/mL
MIC [12]: 25 µg/mL
MIC ([13]; SC10, 18 h, Candida tropicalis SC 10,597): 25 µg/mL
MIC ([13]; SC2963, 18 h, Candida tropicalis SC 2963 (AmphoB^R)): 6.3 µg/mL
MIC ([13]; SC8159, 18 h, Candida tropicalis SC 8159): 25 µg/mL
MIC ([13]; SC9861, 18 h, Candida tropicalis SC 9861 (AmphoB^R)): 25 µg/mL
MIC [14]: 0.2 µg/mL
MIC [15]: 0.4 µg/mL
MIC [16]: 0.2 µg/mL
MIC [17]: 0.4 µg/mL
concentration causing accumulation of lanosterol, consistent with inhibition of lanosterol demethylase [18]: 6.7×10^-7
